Values after ≈ are worked out from the molar mass of the structure shown. Non-standard residues stand in square brackets, D forms with d. Residues, ends and D or L forms follow the SMILES beside them. Dip = N[C@H](C(=O)O)C(c1ccccc1)c1ccccc1

In data set [1] the test system is Enterococcus faecium ATCC 700221. To be noted: E. faecium ATCC 700221.
The subject of data set [2] is Pseudomonas aeruginosa (ATCC 27883). The conditions noted are these: P. aeruginosa ATCC 27883.
Data set [3] deals with P. aeruginosa (ATCC BAA-1744). Put plainly: Broad-spectrum activity against Gram-Negative bacteria (MIC). The format is cell-based. The conditions noted are these: Table 16, Gram-negative panel.
In data set [4] the test system is Enterococcus faecalis ATCC 51575. The conditions noted are these: E. faecalis ATCC 51575.
The test system of data set [5] is Enterococcus faecalis ATCC 29212. The conditions noted are these: E. faecalis ATCC 29212.
A further data set has as its system B. cereus (ATCC-13061). Put plainly: Broad-spectrum activity against Gram-Positive bacteria (MIC). On the set-up: unit not given here. The format is cell-based.
Data set [6] deals with Enterococcus faecium ATCC 27270. The conditions noted are these: E. faecium ATCC 27270.
Data set [7] relates to Methicillin-resistant Staphylococcus aureus MRSA (ATCC BAA-1556). The conditions noted are these: MRSA ATCC BAA-1556.
The test system of the next data set is S. aureus ATCC 29213. The conditions noted are these: S. aureus ATCC 29213.
In data set [8] the test system is A. baumannii (ATCC BAA-1605). As to the kind of experiment: Broad-spectrum activity against Gram-Negative bacteria (MIC). The conditions noted are these: Table 16, Gram-negative panel. Type of data set: cell-based.
A further data set has as its system B. subtilis (ATCC-6633). Put plainly: Broad-spectrum activity against Gram-Positive bacteria (MIC). The format is cell-based. On the set-up: unit not given here.
For data set [9], the system named is Klebsiella pneumoniae (ATCC BAA-1705). To be noted: Table 16, Gram-negative panel.
Data set [10] has as its system Streptococcus pneumoniae ATCC 51938. The conditions noted are these: S. pneumoniae ATCC 51938.
For data set [11], the system named is Streptococcus pneumoniae ATCC 49619. The conditions noted are these: S. pneumoniae ATCC 49619.
Data set [12] has as its system P. aeruginosa (ATCC 10145). Put plainly: Broad-spectrum activity against Gram-Negative bacteria (MIC). Type of data set: cell-based. To be noted: Table 16, Gram-negative panel.
The subject of data set [13] is Klebsiella pneumoniae ATCC 13883. To be noted: Table 16, Gram-negative panel.
For data set [14], the system named is Escherichia coli (ATCC 25922). To be noted: E. coli ATCC 25922.
The test system of another data set is E. coli (ATCC BAA-2452). As to the kind of experiment: Broad-spectrum activity against Gram-Negative bacteria (MIC). Type of data set: cell-based. To be noted: Table 16, Gram-negative panel.
For the next data set, the system named is human red blood cells. On the set-up: unit not given beside the values.

Take “c[Arg-Arg-Arg-arg-Dip-Trp-Dip] [IFX-091]”: the “Broad-spectrum activity E. faecium (ATCC 700221)” value in data set [1] is given as 6.2. The “MIC P. aeruginosa ATCC 27883” value in [2] worked out at 12.5 mg/L. In [3], this compound showed an MIC P. aeruginosa (ATCC BAA-1744) of 25 mg/L. For the same compound, the “Broad-spectrum activity E. faecalis (ATCC 51575)” value in data set [4] came to 12.5. Besides, the “Broad-spectrum activity E. faecalis (ATCC 29212)” value in data set [5] worked out at 6.2. For the same compound, the “Broad-spectrum activity B. cereus (ATCC-13061)” value with B. cereus (ATCC-13061) amounted to 3.1. Besides, in data set [6], the “Broad-spectrum activity E. faecium (ATCC 27270)” value amounted to 3.1. In data set [7], the “MIC MRSA ATCC BAA-1556” value worked out at 3.1 mg/L. Further, the “MIC S. aureus ATCC 29213” value against S. aureus ATCC 29213 worked out at 3.1 mg/L. The MIC A. baumannii (ATCC BAA-1605) in data set [8] came out at 12.5 mg/L. Moreover, the “Broad-spectrum activity B. subtilis (ATCC-6633)” value in the data set with B. subtilis (ATCC-6633) came to 1.5. This compound also came in with an MIC K. pneumonia (ATCC BAA-1705) in data set [9] of 12.5 mg/L. Besides, the “Broad-spectrum activity S. pneumoniae (ATCC 51938)” value in data set [10] was 12.5. For the same compound, the “Broad-spectrum activity S. pneumoniae (ATCC 49619)” value in data set [11] is listed as 50. In data set [12], this compound gave an MIC P. aeruginosa (ATCC 10145) of 25 mg/L. In data set [13], this compound displayed an MIC K. pneumonia (ATCC 13883) of 50 mg/L. The “MIC E. coli ATCC 25922” value in [14] came to 12.5 mg/L. In the data set with E. coli (ATCC BAA-2452), the MIC E. coli (ATCC BAA-2452) came out at 12.5 mg/L.
Turning to “c[Arg-Arg-arg-arg-naI-trp-naI] [IFX-137]”, the “Broad-spectrum activity E. faecium (ATCC 700221)” value in data set [1] is 3.1. In data set [2], the “MIC P. aeruginosa ATCC 27883” value was determined as 32 mg/L. This compound showed an MIC P. aeruginosa (ATCC BAA-1744) in [3] of 25 mg/L. The “Broad-spectrum activity E. faecalis (ATCC 51575)” value in data set [4] is 6.2. In addition, the “Broad-spectrum activity E. faecalis (ATCC 29212)” value in [5] is listed as 6.2. The “Broad-spectrum activity B. cereus (ATCC-13061)” value with B. cereus (ATCC-13061) turned out to be 3.1. In addition, in data set [6], the “Broad-spectrum activity E. faecium (ATCC 27270)” value worked out at 3.1. Moreover, the “MIC MRSA ATCC BAA-1556” value in data set [7] was 3.1 mg/L. The “MIC S. aureus ATCC 29213” value against S. aureus ATCC 29213 was 3.1 mg/L. This compound also gave an MIC A. baumannii (ATCC BAA-1605) in data set [8] of 12.5 mg/L. In addition, in the data set on B. subtilis (ATCC-6633), the “Broad-spectrum activity B. subtilis (ATCC-6633)” value was found to be 1.5. In [9], this compound came in with an MIC K. pneumonia (ATCC BAA-1705) of 50 mg/L. In addition, the “Broad-spectrum activity S. pneumoniae (ATCC 51938)” value in [10] was found to be 12.5. For the same compound, the “Broad-spectrum activity S. pneumoniae (ATCC 49619)” value in [11] came out at 25. The compound further had an MIC P. aeruginosa (ATCC 10145) in data set [12] of 25 mg/L. Moreover, the MIC K. pneumonia (ATCC 13883) in data set [13] is 50 mg/L. Also, the “MIC E. coli ATCC 25922” value in data set [14] stood at 16 mg/L. Moreover, the MIC E. coli (ATCC BAA-2452) in the data set with E. coli (ATCC BAA-2452) is 25 mg/L.
With `N=C(N)NCCC[C@@H]1NC(=O)[C@H](CCCNC(=N)N)NC(=O)[C@H](CCCNC(=N)N)NC(=O)[C@H](C(c2ccccc2)c2ccccc2)NC(=O)[C@H](C(c2ccccc2)c2ccccc2)NC(=O)[C@H](Cc2c[nH]c3ccccc23)NC1=O` [IFX-020, c[Arg-Arg-Arg-Trp-Dip-Dip]] (cyclo([Dip][Dip]RRRW)), in data set [1], the “Broad-spectrum activity E. faecium (ATCC 700221)” value was found to be 1.5. The same compound showed an MIC P. aeruginosa (ATCC BAA-1744) in data set [3] of 12.5 mg/L (≈ 11.3 µM). The “Broad-spectrum activity E. faecalis (ATCC 51575)” value in data set [4] came to 12.5. Besides, in data set [5], the “Broad-spectrum activity E. faecalis (ATCC 29212)” value is 6.2. For the same compound, the “Broad-spectrum activity B. cereus (ATCC-13061)” value in the data set with B. cereus (ATCC-13061) is listed as 3.1. In addition, the “Broad-spectrum activity E. faecium (ATCC 27270)” value in data set [6] is 3.1. Moreover, the HC50 with human red blood cells amounted to 180. For the same compound, the MIC A. baumannii (ATCC BAA-1605) in data set [8] is 25 mg/L (≈ 22.7 µM). Also, in the data set on B. subtilis (ATCC-6633), the “Broad-spectrum activity B. subtilis (ATCC-6633)” value stood at 1.5. In data set [9], this compound returned an MIC K. pneumonia (ATCC BAA-1705) of 12.5 mg/L (≈ 11.3 µM). The “Broad-spectrum activity S. pneumoniae (ATCC 51938)” value in data set [10] is on record as 12.5. Moreover, the “Broad-spectrum activity S. pneumoniae (ATCC 49619)” value in data set [11] is reported as 25. In data set [12], this compound displayed an MIC P. aeruginosa (ATCC 10145) of 25 mg/L (≈ 22.7 µM). The compound further gave an MIC K. pneumonia (ATCC 13883) in data set [13] of 50 mg/L (≈ 45.4 µM). Also, the MIC E. coli (ATCC BAA-2452) in the data set on E. coli (ATCC BAA-2452) stood at 6.2 mg/L (≈ 5.63 µM).
Regarding “c[Arg-arg-Arg-Arg-Dip-Dip-Dip] [IFX-065]”, the “Broad-spectrum activity E. faecium (ATCC 700221)” value in data set [1] amounted to 3.1. The “MIC P. aeruginosa ATCC 27883” value in data set [2] was 12.5 mg/L. The compound further registered an MIC P. aeruginosa (ATCC BAA-1744) in data set [3] of 12.5 mg/L. Moreover, the “Broad-spectrum activity E. faecalis (ATCC 51575)” value in data set [4] is on record as 12.5. Besides, in data set [5], the “Broad-spectrum activity E. faecalis (ATCC 29212)” value amounted to 6.2. Further, the “Broad-spectrum activity B. cereus (ATCC-13061)” value with B. cereus (ATCC-13061) was 3.1. Besides, the “Broad-spectrum activity E. faecium (ATCC 27270)” value in data set [6] amounted to 3.1. Besides, the “MIC MRSA ATCC BAA-1556” value in data set [7] is 1.5 mg/L. Also, the “MIC S. aureus ATCC 29213” value against S. aureus ATCC 29213 amounted to 3.1 mg/L. Besides, in [8], the MIC A. baumannii (ATCC BAA-1605) was 6.2 mg/L. Also, the “Broad-spectrum activity B. subtilis (ATCC-6633)” value in the data set with B. subtilis (ATCC-6633) is 1.5. The MIC K. pneumonia (ATCC BAA-1705) in data set [9] is 12.5 mg/L. The “Broad-spectrum activity S. pneumoniae (ATCC 51938)” value in data set [10] is 12.5. Further, in [11], the “Broad-spectrum activity S. pneumoniae (ATCC 49619)” value came out at 25. This compound also yielded an MIC P. aeruginosa (ATCC 10145) in [12] of 12.5 mg/L. In data set [13], this compound registered an MIC K. pneumonia (ATCC 13883) of 50 mg/L. In addition, the “MIC E. coli ATCC 25922” value in data set [14] was 12.5 mg/L. For the same compound, the MIC E. coli (ATCC BAA-2452) against E. coli (ATCC BAA-2452) stood at 6.2 mg/L.

For the origin of these results see patent US20220289794A1, “SYNTHETIC ANTIMICROBIAL PEPTIDES” (priority 2019, published 2022).
